Experiments:
Assay in all cases: relative viability (nuclei count vs DMSO), 5 days (fraction); higher = more cells survive
SK-LU-1 = tested on: SK-LU-1
How it was run: (§1)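 Lung cancer cell lines were pin-tool dosed in 1536-well plates on the day after seeding, with either a lone drug or a fixed anchor-drug dose plus five library-drug doses (not always all listed) in √10 steps. Nuclei were counted on 4× images after 5 days. Relative viability is the ratio of treated-well to vehicle-well nuclei counts, with each value a median of duplicate plates.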

UMC-11 = tested on: UMC-11
How it was run: as §1

NCI-H322M = tested on: NCI-H322M
How it was run: as §1

NCI-H647 = tested on: NCI-H647
How it was run: as §1

NCI-H1755 = tested on: NCI-H1755
How it was run: as §1

NCI-H522 = tested on: NCI-H522
How it was run: as §1

NCI-H596 = tested on: NCI-H596
How it was run: as §1

HOP-62 = tested on: HOP-62
How it was run: as §1

LCLC-103H = tested on: LCLC-103H
How it was run: as §1

COR-L 105 = tested on: COR-L 105
How it was run: as §1

CAL-12T = tested on: CAL-12T
How it was run: as §1

EKVX = tested on: EKVX
How it was run: as §1

NCI-H1793 = tested on: NCI-H1793
How it was run: as §1

NCI-H520 = tested on: NCI-H520
How it was run: as §1

201T = tested on: 201T
How it was run: as §1

NCI-H2009 = tested on: NCI-H2009
How it was run: as §1

NCI-H1437 = tested on: NCI-H1437
How it was run: as §1

HCC-827 = tested on: HCC-827
How it was run: as §1

NCI-H441 = tested on: NCI-H441
How it was run: as §1

H3255 = tested on: H3255
How it was run: as §1

EPLC-272H = tested on: EPLC-272H
How it was run: as §1

HCC-15 = tested on: HCC-15
How it was run: as §1

NCI-H1355 = tested on: NCI-H1355
How it was run: as §1

PC-3 [JPC-3] = tested on: PC-3 [JPC-3]
How it was run: as §1

HCC-44 = tested on: HCC-44
How it was run: as §1

Nc1cccc2c1CN(C1CCC(=O)NC1=O)C2=O (stereo not given) [Lenalidomide] + Cc1nc(Nc2ncc(C(=O)Nc3c(C)cccc3Cl)s2)cc(N2CCN(CCO)CC2)n1 [Dasatinib] (partner 0.075 µM)
relative viability (SK-LU-1; first compound 0.253 µM): 0.175
relative viability (SK-LU-1; first compound 0.8 µM): 0.206
relative viability (SK-LU-1; first compound 2.53 µM): 0.178
relative viability (SK-LU-1; first compound 8 µM): 0.143
relative viability (UMC-11; first compound 0.253 µM): 0.452
relative viability (UMC-11; first compound 0.8 µM): 0.456
relative viability (UMC-11; first compound 2.53 µM): 0.542
relative viability (UMC-11; first compound 8 µM): 0.43
relative viability (NCI-H322M; first compound 0.253 µM): 0.262
relative viability (NCI-H322M; first compound 0.8 µM): 0.279
relative viability (NCI-H322M; first compound 2.53 µM): 0.254
relative viability (NCI-H322M; first compound 8 µM): 0.253
relative viability (NCI-H647; first compound 0.253 µM): 0.14
relative viability (NCI-H647; first compound 0.8 µM): 0.176
relative viability (NCI-H647; first compound 2.53 µM): 0.319
relative viability (NCI-H647; first compound 8 µM): 0.129
relative viability (NCI-H1755; first compound 0.253 µM): 0.404
relative viability (NCI-H1755; first compound 0.8 µM): 0.216
relative viability (NCI-H1755; first compound 2.53 µM): 0.428
relative viability (NCI-H1755; first compound 8 µM): 0.33
relative viability (NCI-H522; first compound 0.253 µM): 1
relative viability (NCI-H522; first compound 2.53 µM): 0.749
relative viability (NCI-H522; first compound 8 µM): 0.678
relative viability (NCI-H596; first compound 0.253 µM): 0.644
relative viability (NCI-H596; first compound 2.53 µM): 0.655
relative viability (NCI-H596; first compound 8 µM): 0.505
relative viability (HOP-62; first compound 0.253 µM): 0.67
relative viability (HOP-62; first compound 0.8 µM): 0.615
relative viability (HOP-62; first compound 2.53 µM): 0.79
relative viability (HOP-62; first compound 8 µM): 0.583
relative viability (LCLC-103H; first compound 0.253 µM): 0.442
relative viability (LCLC-103H; first compound 0.8 µM): 0.325
relative viability (LCLC-103H; first compound 2.53 µM): 0.453
relative viability (LCLC-103H; first compound 8 µM): 0.296
relative viability (COR-L 105; first compound 0.253 µM): 0.433
relative viability (COR-L 105; first compound 0.8 µM): 0.331
relative viability (COR-L 105; first compound 2.53 µM): 0.427
relative viability (COR-L 105; first compound 8 µM): 0.371
relative viability (CAL-12T; first compound 0.253 µM): 0.262
relative viability (CAL-12T; first compound 0.8 µM): 0.345
relative viability (CAL-12T; first compound 2.53 µM): 0.397
relative viability (CAL-12T; first compound 8 µM): 0.368
relative viability (EKVX; first compound 0.253 µM): 0.613
relative viability (EKVX; first compound 0.8 µM): 0.495
relative viability (EKVX; first compound 2.53 µM): 0.575
relative viability (EKVX; first compound 8 µM): 0.499
relative viability (NCI-H1793; first compound 0.253 µM): 0.349
relative viability (NCI-H1793; first compound 2.53 µM): 0.412
relative viability (NCI-H1793; first compound 8 µM): 0.212
relative viability (NCI-H520; first compound 0.253 µM): 0.188
relative viability (NCI-H520; first compound 0.8 µM): 0.192
relative viability (NCI-H520; first compound 2.53 µM): 0.235
relative viability (NCI-H520; first compound 8 µM): 0.159
relative viability (201T; first compound 0.253 µM): 0.598
relative viability (201T; first compound 2.53 µM): 0.581
relative viability (201T; first compound 8 µM): 0.538
relative viability (NCI-H2009; first compound 0.253 µM): 0.326
relative viability (NCI-H2009; first compound 0.8 µM): 0.299
relative viability (NCI-H2009; first compound 2.53 µM): 0.351
relative viability (NCI-H2009; first compound 8 µM): 0.284
relative viability (NCI-H1437; first compound 0.253 µM): 0.536
relative viability (NCI-H1437; first compound 0.8 µM): 0.45
relative viability (NCI-H1437; first compound 2.53 µM): 0.485
relative viability (NCI-H1437; first compound 8 µM): 0.442
relative viability (HCC-827; first compound 0.253 µM): 0.291
relative viability (HCC-827; first compound 0.8 µM): 0.416
relative viability (HCC-827; first compound 2.53 µM): 0.341
relative viability (HCC-827; first compound 8 µM): 0.312
relative viability (NCI-H441; first compound 0.253 µM): 0.67
relative viability (NCI-H441; first compound 0.8 µM): 0.518
relative viability (NCI-H441; first compound 2.53 µM): 0.648
relative viability (NCI-H441; first compound 8 µM): 0.493
relative viability (H3255; first compound 0.253 µM): 0.365
relative viability (H3255; first compound 0.8 µM): 0.32
relative viability (H3255; first compound 2.53 µM): 0.34
relative viability (H3255; first compound 8 µM): 0.301
relative viability (EPLC-272H; first compound 0.253 µM): 0.379
relative viability (EPLC-272H; first compound 0.8 µM): 0.358
relative viability (EPLC-272H; first compound 2.53 µM): 0.321
relative viability (EPLC-272H; first compound 8 µM): 0.235
relative viability (HCC-15; first compound 0.253 µM): 0.629
relative viability (HCC-15; first compound 0.8 µM): 0.526
relative viability (HCC-15; first compound 2.53 µM): 0.816
relative viability (HCC-15; first compound 8 µM): 0.527
relative viability (NCI-H1355; first compound 0.253 µM): 0.701
relative viability (NCI-H1355; first compound 2.53 µM): 0.744
relative viability (NCI-H1355; first compound 8 µM): 0.403
relative viability (PC-3 [JPC-3]; first compound 0.253 µM): 1
relative viability (PC-3 [JPC-3]; first compound 0.8 µM): 0.901
relative viability (PC-3 [JPC-3]; first compound 2.53 µM): 1.08
relative viability (PC-3 [JPC-3]; first compound 8 µM): 1.04

Nc1cccc2c1CN(C1CCC(=O)NC1=O)C2=O (stereo not given) [Lenalidomide] + NC(=O)Nc1cc(-c2cccc(F)c2)sc1C(=O)N[C@H]1CCCNC1 [AZD7762] (partner 0.2 µM)
relative viability (NCI-H322M; first compound 0.253 µM): 0.543
relative viability (NCI-H322M; first compound 0.8 µM): 0.55
relative viability (NCI-H322M; first compound 2.53 µM): 0.596
relative viability (NCI-H322M; first compound 8 µM): 0.442
relative viability (NCI-H647; first compound 0.253 µM): 0.485
relative viability (NCI-H647; first compound 0.8 µM): 0.401
relative viability (NCI-H647; first compound 2.53 µM): 0.499
relative viability (NCI-H647; first compound 8 µM): 0.498
relative viability (NCI-H1755; first compound 0.253 µM): 0.458
relative viability (NCI-H1755; first compound 0.8 µM): 0.498
relative viability (NCI-H1755; first compound 2.53 µM): 0.452
relative viability (NCI-H1755; first compound 8 µM): 0.454
relative viability (NCI-H522; first compound 0.253 µM): 0.858
relative viability (NCI-H522; first compound 0.8 µM): 0.882
relative viability (NCI-H522; first compound 2.53 µM): 0.758
relative viability (NCI-H522; first compound 8 µM): 0.758
relative viability (NCI-H596; first compound 0.253 µM): 1.13
relative viability (NCI-H596; first compound 0.8 µM): 1.09
relative viability (NCI-H596; first compound 2.53 µM): 1.1
relative viability (NCI-H596; first compound 8 µM): 1
relative viability (HOP-62; first compound 0.253 µM): 0.552
relative viability (HOP-62; first compound 0.8 µM): 0.838
relative viability (HOP-62; first compound 2.53 µM): 0.711
relative viability (HOP-62; first compound 8 µM): 0.533
relative viability (LCLC-103H; first compound 0.253 µM): 0.755
relative viability (LCLC-103H; first compound 0.8 µM): 0.796
relative viability (LCLC-103H; first compound 2.53 µM): 0.786
relative viability (LCLC-103H; first compound 8 µM): 0.589
relative viability (CAL-12T; first compound 0.253 µM): 0.668
relative viability (CAL-12T; first compound 0.8 µM): 0.564
relative viability (CAL-12T; first compound 2.53 µM): 0.737
relative viability (CAL-12T; first compound 8 µM): 0.666
relative viability (HCC-44; first compound 0.253 µM): 0.97
relative viability (HCC-44; first compound 0.8 µM): 0.836
relative viability (HCC-44; first compound 2.53 µM): 0.999
relative viability (HCC-44; first compound 8 µM): 1.14
relative viability (EKVX; first compound 0.253 µM): 0.735
relative viability (EKVX; first compound 0.8 µM): 0.941
relative viability (EKVX; first compound 2.53 µM): 0.805
relative viability (EKVX; first compound 8 µM): 0.7
relative viability (NCI-H1793; first compound 0.253 µM): 0.476
relative viability (NCI-H1793; first compound 2.53 µM): 0.821
relative viability (NCI-H1793; first compound 8 µM): 0.389
relative viability (201T; first compound 0.253 µM): 0.594
relative viability (201T; first compound 0.8 µM): 0.848
relative viability (201T; first compound 2.53 µM): 0.617
relative viability (201T; first compound 8 µM): 0.529
relative viability (NCI-H1437; first compound 0.253 µM): 1.16
relative viability (NCI-H1437; first compound 0.8 µM): 1.23
relative viability (NCI-H1437; first compound 2.53 µM): 1.17
relative viability (NCI-H1437; first compound 8 µM): 1.19
relative viability (HCC-827; first compound 0.253 µM): 0.264
relative viability (HCC-827; first compound 0.8 µM): 0.325
relative viability (HCC-827; first compound 2.53 µM): 0.255
relative viability (HCC-827; first compound 8 µM): 0.206
relative viability (NCI-H441; first compound 0.253 µM): 1.3
relative viability (NCI-H441; first compound 0.8 µM): 1.15
relative viability (NCI-H441; first compound 2.53 µM): 1.17
relative viability (NCI-H441; first compound 8 µM): 1.26
relative viability (H3255; first compound 0.253 µM): 0.936
relative viability (H3255; first compound 0.8 µM): 0.747
relative viability (H3255; first compound 2.53 µM): 0.93
relative viability (H3255; first compound 8 µM): 0.823
relative viability (EPLC-272H; first compound 0.253 µM): 0.23
relative viability (EPLC-272H; first compound 0.8 µM): 0.202
relative viability (EPLC-272H; first compound 2.53 µM): 0.213
relative viability (EPLC-272H; first compound 8 µM): 0.201
relative viability (HCC-15; first compound 0.253 µM): 1.11
relative viability (HCC-15; first compound 0.8 µM): 1.22
relative viability (HCC-15; first compound 2.53 µM): 1.35
relative viability (HCC-15; first compound 8 µM): 1.36
relative viability (NCI-H1355; first compound 0.253 µM): 0.798
relative viability (NCI-H1355; first compound 0.8 µM): 0.59
relative viability (NCI-H1355; first compound 2.53 µM): 0.765
relative viability (NCI-H1355; first compound 8 µM): 0.696
relative viability (PC-3 [JPC-3]; first compound 0.253 µM): 0.888
relative viability (PC-3 [JPC-3]; first compound 0.8 µM): 0.467
relative viability (PC-3 [JPC-3]; first compound 2.53 µM): 0.944
relative viability (PC-3 [JPC-3]; first compound 8 µM): 0.667

Reference: the supplement of paper PMC10307832
